From patent US20210130789A1, “METHODS OF STROMAL CELL EXPANSION, USES AND MATERIALS RELATED THERETO” (CITY OF HOPE, priority 2019, published 2021)

How the values were obtained:
[1] = system: IPTD-MSCs and islet cells; assay: TSG6 and VEGF expression in cells cultured under normoxic condition; format: cell-based, human; conditions: normoxic condition (5% CO2, 21% O2)
Source text: (§1) Furthermore, DMOG protected the human islets and MSC from hypoxia by inhibiting Hypoxia-inducible Factor Prolyl Hydroxylase (HIF-Phase) resulted into augmentation of certain transcription factor(s) associated that could be highly beneficial for the islet and cell survival and function. Islets in particular are oxygen sensitive and when oxygen demand exceeds the supply, the HIF pathway is triggered to adapt for hypoxic conditions as a result of inactivation of HIF-Phase, an enzyme that contributes to degradation of HIF-1α. Thus, inhibiting HIF-Phase enzyme activity leads to increased HIF-1α protein in cells. Up-regulation of HIF-1α at transcriptional and translational levels leads to production of erythropoietin (EPO) and other proteins, including glycolytic enzyme, glucose transporter-1 (Glut-1) and vascular endothelial growth factor (VEGF). These factors are important to protect islets from cytokine induced cell death and also potentiate islet function, survival, and proliferation.

IPTD-MSCs [2] = assay: Quantitative real-time PCR of IPTD-MSCs treated in vitro with TNF-α and DMOG; format: cell-based, human; conditions: 24 hours; TNF-α 10 ng/ml and/or DMOG 1 mM; compared to control
Description: Recombinant human TNF-α protein (R&D Systems, Minneapolis, Minn.) was reconstituted in research-grade water (Hospira, Lake Forest, Ill.) to a concentration of 100 ng/mL, aliquoted and stored at −20° C. Dimethyloxallyl glycine (DMOG; Cayman Chemicals, Ann Arbor, Mich.) was dissolved in water to yield a stock solution of 57.1 mM, aliquoted (100 μL) and stored at −80° C. IPTD-MSCs were incubated in T-25 flasks in 5 ml of CMRL-1066 medium supplemented with 5% hPL until ˜50% confluent. Cells were cultured for 24 hours in CMRL 1066 medium, or medium containing 10 ng/ml TNF-α, 1 mM DMOG or 1 mM DMOG and 10 ng/ml TNF-α. Following treatment, cells were collected in 1.7-ml Eppendorf tubes and stored in RLT buffer (Qiagen, Germantown, Md.) at −80° C. for future preparation of cDNA.
The TaqMan Gene Expression Assay system (ThermoFisher Scientific) was used to quantify β-ACTIN, TSG-6, NRF2, and VEGF mRNA levels. Total RNA was extracted using a Qiagen Mini Kit (Cat. No. 51306) and converted into cDNA. Real-time quantitative PCR was run in duplicate on a ViiA™ 7 Real-Time PCR System with a 384-well block (ThermoFisher Scientific). Thermal cycles were programmed for 20 seconds at 95° C. for the initial denaturation, followed by 45 cycles of […] at 95° C. for denaturation, 30 seconds at 60° C. for annealing, 60 seconds at 72° C. for extension, and a final extension at 72° C. for 10 minutes. All PCR runs were performed with negative (water) and positive controls. β-ACTIN was used as an internal control to quantify relative gene expression.

IPTD-MSCs [3] = assay: Cytokine assay (Luminex) of supernatants from treated IPTD-MSCs; format: cell-based, human
Description: Supernatants from cells cultured for 24 hours under various conditions (medium alone, or medium plus DMOG, TNF-α, or DMOG+TNF-α) were collected, and cytokine analysis performed using a Luminex assay kit (Bio-Rad, Hercules, Calif.) according to the manufacturer's protocol. The following growth factors/cytokines were measured: VEGF, IL-6, IL-8, MMP-9, MCP-1, MMP-2, IL-4, IL-10 and […]. Sample were measured in duplicate.

[4] = system: Human umbilical vein endothelial cells (HUVECs); assay: In vitro angiogenesis assay: endothelial tube formation with IPTD-MSC conditioned media; format: cell-based; conditions: 24 hours, media from treated IPTD-MSCs
Description: Angiogenic capacity was assessed by quantifying endothelial tube formation. Human umbilical vein endothelial cells (HUVECs) (Cell Applications Inc., San Diego, Calif.; Cat #200p-05n) between passages 2 to 6 were cultured in a standard medium. Cells (1×10^5 cells/well) were plated in 24-well plates (Fisher, Cat #930186) coated with Matrigel (Corning, Cat #356234), and incubated for 30 minutes to allow cell attachment. Supernatants (150 μL/well) from control and stimulated IPTD-MSCs (DMOG, TNF-α, or DMOG+TNF-α) were added to obtain a total volume of 300 μL per well. Plates were then incubated at 37° C., 5% CO2 for 24 hours. At 4 and 24 hours, the wells were visualized using a Leica microscope and representative photographic images were obtained. Total endothelial tube number and tube length were determined using ImageJ software (NIH, Bethesda, Md.).

human islets = assay: mRNA levels in human islets treated with DMOG; format: cell-based; conditions: DMOG 1 mM
Description: (§2) Islets of high and low purity, and mesenchymal stem cells (MSCs) as a potential source of human islets, isolated from human donor pancreata were treated with the PHD inhibitor DMOG. Alterations in gene expression, cell proliferation, survival and metabolism were characterized.
(§3) As shown in FIGS. 10-12, pancreatic-derived human islets and MSCs were treated with DMOG or control at several concentrations and time intervals. The levels of HIF-1a were increased and PHD decreased in DMOG-treated versus control cells, and in a dose-dependent manner.

pancreatic ductal cells = assay: mRNA levels in pancreatic ductal cells treated with DMOG; format: cell-based, human; conditions: DMOG 1 mM, one donor
Description: One donor was tested. The data are expressed as mean±SD.

[5] = system: pancreatic-derived human islets and MSCs; assay: HIF-1a, PHD and survival gene levels in DMOG-treated islets and MSCs; format: cell-based
Description: as §2, §3

[6] = system: pancreatic-derived human islets and MSCs; assay: Cytokine injury and proliferative capacity of DMOG-treated islets and MSCs in vitro; format: cell-based
Description: as §2, §3

diabetic mice = assay: Engraftment of DMOG-treated islets in diabetic mice; format: in vivo
human islets and MSC = assay: Protection of human islets and MSC from hypoxia; format: cell-based
Source text: as §1

[7] = culture medium after 24 hours, compared to control
[8] = DMOG-treated versus control cells, dose-dependent

COC(=O)CNC(=O)C(=O)OC [DMOG, dimethyloxalylglycine]
VEGF upregulated ([1]; IPTD-MSCs and islet cells): 51 fold
TSG6 upregulated ([1]; IPTD-MSCs and islet cells for DMOG, MSC for TNF-α plus DMOG): 31 fold
NRF2 expression (IPTD-MSCs [2]): significantly increased
VEGF expression (IPTD-MSCs [2]): significantly increased
Levels of MCP-1 (IPTD-MSCs [3]; conditioned media after 24 hours): reduced
secretion of IL-4 (IPTD-MSCs [3]; [7]): enhanced the secretion
secretion of IL-6 (IPTD-MSCs [3]; [7]): enhanced the secretion
secretion of IL-8 (IPTD-MSCs [3]; [7]): enhanced the secretion
secretion of VEGF (IPTD-MSCs [3]; [7]): enhanced the secretion
numbers of cell tubes [4]: 21.0±2.0
tube length [4]: 28.6±9.9 mm
mRNA levels of VEGF gene (human islets; human islets Fr 1, purity >70%): increased mRNA levels
mRNA levels of EPO gene (human islets; human islets Fr 2, purity <50%): increased mRNA levels
mRNA levels of INS gene (human islets; human islets Fr 2, purity <50%): increased mRNA levels
mRNA levels of PDX1 gene (human islets; human islets Fr 2, purity <50%): increased mRNA levels
mRNA levels of TSG-6 gene (human islets; human islets Fr 2, purity <50%): increased mRNA levels
mRNA levels of VEGF gene (human islets; human islets Fr 2, purity <50%): increased mRNA levels
mRNA levels of TSG-6 gene (pancreatic ductal cells): increased mRNA levels
mRNA levels of VEGF gene (pancreatic ductal cells): increased mRNA levels
key survival genes (EPO, glycolytic enzyme, Glut-1, VEGF) ([5]; DMOG treatment of islets and MSCs): upregulation
levels of HIF-1a [5, 8]: increased
levels of PHD [5, 8]: decreased
proliferative capacity [6]: higher proliferative capacity
susceptibility to cytokine injury [6]: less susceptible
engraftment (diabetic mice): increased engraftment
glucose homeostasis (diabetic mice): improved glucose homeostasis
protection from hypoxia (human islets and MSC): protected

TNF-α
TSG-6 gene expression levels (IPTD-MSCs [2]): significantly increased
effect on any of the cytokines examined (IPTD-MSCs [3]; culture medium after 24 hours, compared to controls): did not have an effect
numbers of cell tubes [4]: no effect
tube length [4]: no effect
